Experimental data from patent US20230091047A1 (priority 2019, published 2023).
Read-outs that look alike come from different tables or passages of the source.

Legend:
in vitro = assay type: cell-based; conditions: human, HepG2 or HepG2.117 cells, mean value
Outline: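 Luminescent ATP quantitation served as the viability endpoint following a 3- or 4-day incubation with test compounds.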

[1] = test system: HBV (HepG2.117 cell line, inducibly HBV producing); test: Anti-HBV activity: intracellular HBV DNA by real-time PCR in HepG2.117 cells after 3 days of treatment; assay type: cell-based, hepatitis B virus
Outline: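 Antiviral effect is expressed through intracellular HBV DNA levels, determined by real-time PCR with a virus-specific probe. These levels were measured after 3 days of treatment with compound dilutions, in HepG2.117 cells induced to replicate HBV.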

[2] = 3-days incubation (unmarked values), ATPlite
[3] = Hepatitis B virus, HepG2.117, 72 h, HepG2.117 cells, 3 days of treatment, intracellular HBV DNA by real-time PCR; mean value; read-out: EC50 (μM, mean value)
[4] = ATPlite, 3-days incubation (not marked with *)
[5] = Hepatitis B virus, HepG2.117, 72 h, HepG2.117 cells, intracellular HBV DNA by real-time PCR, 3 days of treatment, mean value; read-out: EC50 (μM, mean value)

Structure (SMILES) | CC50 at 3 days (in vitro; [2]) | EC50 [1, 3] | CC50 at 3 days (in vitro; [4]) | EC50 [1, 5] | CC50 at 3 days (in vitro; 3-days incubation (unmarked values), ATPlite viability)
COc1ccc(CNc2nc3c(c(=O)[nH]2)CCN(C(=O)c2ccc(Br)c(F)c2)C3)cc1 [Compound C69, 7-(4-bromo-3-fluorobenzoyl)-2-{[(4-methoxyphenyl)methyl]amino}-5,6,7,8-tetrahydropyrido[3,4-d]pyrimidin-4(3H)-one] | 21 µM | 10 µM | – | – | –
COc1ccc(CNc2nc3c(c(=O)n2-c2cccnc2)CCN(C(=O)c2ccc(Cl)c(Cl)c2)C3)cc1 [Compound C68, 7-(3,4-dichlorobenzoyl)-2-{[(4-methoxyphenyl)methyl]amino}-3-(pyridin-3-yl)-5,6,7,8-tetrahydropyrido[3,4-d]pyrimidin-4(3H)-one] | 22.4 µM | 0.66 µM | – | – | –
CNC(=O)c1cc(-n2c(N[C@@H](C)c3ccc(OC(F)(F)F)cc3)nc3c(c2=O)C[C@@H](C)N(C(=O)c2ccc(Cl)c(Cl)c2)C3)[nH]n1 [Compound C607] | – | – | 11.4 µM | 0.14 µM | –
CNC(=O)c1ccc(-n2c(O[C@H](C)C(C)C)nc3c(c2=O)C[C@@H](C)N(C(=O)c2ccc(Cl)c(Cl)c2)C3)cc1 [Compound C458] | – | – | 24.8 µM | 0.06 µM | –
CNC(=O)c1ccc(-n2c(NC(C)C)nc3c(c2=O)C[C@@H](C)N(C(=O)c2cc(Br)c4nccn4c2)C3)cc1 [Compound C495] | – | – | > 50 µM | > 25 µM | –
CNC(=O)c1ccc(-n2c(N[C@@H](C)c3ccc(C(F)(F)F)cc3)nc3c(c2=O)C[C@@H](C)N(C(=O)c2ccc(Cl)c(Cl)c2)C3)cc1 (single isomer, unassigned) [Compound C413b] | – | – | 8.3 µM | 4.13 µM | –
CNC(=O)c1ccc(-n2c(NC(C)C)nc3c(c2=O)C[C@@H](C)N(C(=O)c2ccc(OC(F)F)c(Cl)c2)C3)cc1 [Compound C475] | – | – | > 50 µM | 0.07 µM | –
CNC(=O)c1ccc(-n2c(N3CC4CC3(C)C4)nc3c(c2=O)C[C@@H](C)N(C(=O)c2ccc(Cl)c(Cl)c2)C3)cc1 [Compound C444] | – | – | 37.6 µM | 0.06 µM | –
COc1ccccc1-n1c(N[C@H](C)CO)nc2c(c1=O)CCN(C(=O)c1ccc(Cl)c(Cl)c1)C2 (single isomer, unassigned) [Compound C62A, 7-(3,4-dichlorobenzoyl)-2-{[(2*R)-1-hydroxypropan-2-yl]amino}-3-(2-methoxyphenyl)-5,6,7,8-tetrahydropyrido[3,4-d]pyrimidin-4(3H)-one] | > 50 µM | 9.88 µM | – | – | –
CNC(=O)c1ccc(-n2c(N3CC4CC3C4)nc3c(c2=O)C[C@@H](C)N(C(=O)c2ccc(Cl)c(C(F)(F)F)c2)C3)c(Cl)c1 (single isomer, unassigned) [Compound C701a] | – | 0.04 µM | – | – | > 50 µM
COC(=O)c1ccc(-n2c(NC(C)C)nc3c(c2=O)C[C@@H](C)N(C(=O)c2ccc(Cl)c(Cl)c2)C3)cn1 [Compound C226] | > 50 µM | 2.3 µM | – | – | –
CNC(=O)c1ccc(-n2c(NC(C)C)nc3c(c2=O)CCN(C(=O)c2ccc(Cl)c(Cl)c2)C3)cc1F [Compound C219, 4-[7-(3,4-dichlorobenzoyl)-4-oxo-2-[(propan-2-yl)amino]-5,6,7,8-tetrahydropyrido[3,4-d]pyrimidin-3(4H)-yl]-2-fluoro-N-methylbenzamide] | > 50 µM | 0.28 µM | – | – | –
CNC(=O)c1ccc(-n2c(N[C@@H](C)c3ccc4c(c3)OCO4)nc3c(c2=O)C[C@@H](C)N(C(=O)c2ccc(Cl)c(Cl)c2)C3)cc1 (single isomer, unassigned) [Compound C414b] | – | – | > 50 µM | 0.06 µM | –
CNC(=O)c1ccc(-n2c(Nc3ccnn3C)nc3c(c2=O)C[C@@H](C)N(C(=O)c2ccc(Cl)c(Cl)c2)C3)cc1 [Compound C389] | – | – | > 50 µM | > 10 µM | –
CNC(=O)c1cc(-n2c(NC(C)C)nc3c(c2=O)C[C@@H](C)N(C(=O)c2ccc(Cl)c(C(F)(F)F)c2)C3)nn1C [Compound C668] | – | – | > 50 µM | 0.01 µM | –
CNC(=O)c1ccc(-n2c(NC(C)C)nc3c(c2=O)C[C@@H](C)N(C(=O)c2ccc(Br)cc2OC)C3)cc1 [Compound C513] | – | – | > 50 µM | 22.1 µM | –
COc1ccc(CNc2nc3c(c(=O)n2C(C)C)CCN(C(=O)c2ccc(Cl)c(Cl)c2)C3)cc1 [Compound C72, 7-(3,4-dichlorobenzoyl)-2-{[(4-methoxyphenyl)methyl]amino}-3-(propan-2-yl)-5,6,7,8-tetrahydropyrido[3,4-d]pyrimidin-4(3H)-one] | 40 µM | 2.77 µM | – | – | –
CNC(=O)[C@H]1CC[C@H](n2c(NC(C)C)nc3c(c2=O)C[C@@H](C)N(C(=O)c2ccc(Cl)c(Cl)c2)C3)CC1 [Compound C255, trans-4-[(6R)-7-(3,4-dichlorobenzoyl)-6-methyl-4-oxo-2-[(propan-2-yl)amino]-5,6,7,8-tetrahydropyrido[3,4-d]pyrimidin-3(4H)-yl]-N-methylcyclohexane-1-carboxamide] | > 50 µM | 0.09 µM | – | – | –
COc1ccc(CNc2nc3c(c(=O)n2-c2ccc(C(=O)O)cc2)CCN(C(=O)c2ccc(Cl)c(Cl)c2)C3)cc1 [Compound C124, 4-[7-(3,4-dichlorobenzoyl)-2-{[(4-methoxyphenyl)methyl]amino}-4-oxo-5,6,7,8-tetrahydropyrido[3,4-d]pyrimidin-3(4H)-yl]benzoic acid] | > 50 µM | 36.8 µM | – | – | –
CNC(=O)c1ccc(-n2c(N[C@H](C)c3ccc(S(C)(=O)=O)cc3)nc3c(c2=O)C[C@@H](C)N(C(=O)c2ccc(Cl)c(Cl)c2)C3)cc1 (single isomer, unassigned) [Compound C412a] | – | – | > 50 µM | 0.94 µM | –
CNC(=O)c1ccc(-n2c(NC34C5C6C7C5C3C7C64)nc3c(c2=O)C[C@@H](C)N(C(=O)c2ccc(Cl)c(Cl)c2)C3)cc1 (stereo partly shown) [Compound C461] | – | – | > 50 µM | 1.45 µM | –
Cc1cc(C(=O)N2CCc3c(nc(NC(C)C)n(-c4ccc(S(C)(=O)=O)cc4)c3=O)C2)ccc1Cl [Compound C221, 7-(4-chloro-3-methylbenzoyl)-3-[4-(methanesulfonyl)phenyl]-2-[(propan-2-yl)amino]-5,6,7,8-tetrahydropyrido[3,4-d]pyrimidin-4(3H)-one] | > 50 µM | 1.58 µM | – | – | –
COc1ccc(CNc2nc3c(c(=O)n2-c2ccc(N4CCOCC4)cc2)CCN(C(=O)c2ccc(Cl)c(Cl)c2)C3)cc1 [Compound C128, 7-(3,4-dichlorobenzoyl)-2-{[(4-methoxyphenyl)methyl]amino}-3-[4-(morpholin-4-yl)phenyl]-5,6,7,8-tetrahydropyrido[3,4-d]pyrimidin-4(3H)-one] | > 50 µM | 1.06 µM | – | – | –
Cc1ncccc1-n1c(NC(C)C)nc2c(c1=O)CCN(C(=O)c1ccc(Cl)c(Cl)c1)C2 [Compound C99, 7-(3,4-dichlorobenzoyl)-3-(2-methylpyridin-3-yl)-2-[(propan-2-yl)amino]-5,6,7,8-tetrahydropyrido[3,4-d]pyrimidin-4(3H)-one] | 28.3 µM | 2.05 µM | – | – | –
CNC(=O)c1ccc(-n2c(NC(C)C)nc3c(c2=O)C[C@@H](C)N(C(=O)c2n[nH]c4ccc(Cl)cc24)C3)cc1 [Compound C473] | – | – | > 50 µM | > 25 µM | –
CNC(=O)c1ccc(-n2c(NC(C)C)nc3c(c2=O)C[C@@H](C)N(C(=O)c2ccc4cncc(Br)c4c2)C3)cc1 [Compound C491] | – | – | > 50 µM | 15.3 µM | –
